What was measured:
Type in all cases: biochemical
Btk = target: T1, Btk (Homo sapiens, UniProt Q06187); test: Btk in vitro inhibitory activity (one of Method A TR-FRET, Method B electrophoretic mobility shift, Method C radiometric filter binding); details: wild-type Btk; read-out: Btk-WT IC50
T1 construct: purified from insect cells as a full-length construct containing a N-terminal 6X-His tag; His6 (N); made in house; host or cells: insect cells (Method C)
Method in brief: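 Three alternative formats were used. A radiometric filter-binding read used 8 nM full-length His-BTK with 0.2 mg/mL poly(Glu-Tyr) 4:1 (C); microfluidic separation of 1 μM FAM-peptide by 1 nM BTK gave IC50 from 12-point curves (B); TR-FRET at Km ATP, 0.5 nM Btk, gave Ki(app)-derived IC50 (A).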

TEC = target: T2, TEC (Homo sapiens, UniProt P42680); test: Inhibition of a panel of kinases (in vitro HotSpot kinase assay, 33P-ATP, 1 μM ATP); details: HotSpot kinase assay, 1 μM ATP
T2 sequence (P42680 1-631): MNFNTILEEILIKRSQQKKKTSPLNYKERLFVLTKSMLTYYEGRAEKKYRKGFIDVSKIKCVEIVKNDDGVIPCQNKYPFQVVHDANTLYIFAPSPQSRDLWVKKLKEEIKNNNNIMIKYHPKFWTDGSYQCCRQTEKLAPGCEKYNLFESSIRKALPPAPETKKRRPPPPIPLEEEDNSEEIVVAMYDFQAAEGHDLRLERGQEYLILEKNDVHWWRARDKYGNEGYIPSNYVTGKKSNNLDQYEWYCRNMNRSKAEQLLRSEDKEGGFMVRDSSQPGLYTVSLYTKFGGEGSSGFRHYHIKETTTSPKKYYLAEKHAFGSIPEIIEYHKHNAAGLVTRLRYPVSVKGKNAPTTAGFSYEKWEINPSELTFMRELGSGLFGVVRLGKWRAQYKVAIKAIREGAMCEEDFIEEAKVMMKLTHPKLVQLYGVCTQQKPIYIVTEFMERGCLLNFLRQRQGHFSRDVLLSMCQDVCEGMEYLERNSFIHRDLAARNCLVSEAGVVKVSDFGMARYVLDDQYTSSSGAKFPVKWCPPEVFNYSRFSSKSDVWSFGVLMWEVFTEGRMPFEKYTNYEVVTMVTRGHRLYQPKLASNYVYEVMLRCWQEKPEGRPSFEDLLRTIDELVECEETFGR
Method in brief: (§1)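 Radiometric read-out: 33P transfer to a suitable substrate by each purified enzyme, ATP at 1 μM. Values are degree of inhibition.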

panel of kinases = target: T3, panel of kinases (Homo sapiens, UniProt P51813); test: Inhibition of a panel of kinases (in vitro HotSpot kinase assay, 33P-ATP, 1 μM ATP), other kinases; details: BMX wild-type, read-out: BMX-WT IC50
T3 sequence (P51813 1-675): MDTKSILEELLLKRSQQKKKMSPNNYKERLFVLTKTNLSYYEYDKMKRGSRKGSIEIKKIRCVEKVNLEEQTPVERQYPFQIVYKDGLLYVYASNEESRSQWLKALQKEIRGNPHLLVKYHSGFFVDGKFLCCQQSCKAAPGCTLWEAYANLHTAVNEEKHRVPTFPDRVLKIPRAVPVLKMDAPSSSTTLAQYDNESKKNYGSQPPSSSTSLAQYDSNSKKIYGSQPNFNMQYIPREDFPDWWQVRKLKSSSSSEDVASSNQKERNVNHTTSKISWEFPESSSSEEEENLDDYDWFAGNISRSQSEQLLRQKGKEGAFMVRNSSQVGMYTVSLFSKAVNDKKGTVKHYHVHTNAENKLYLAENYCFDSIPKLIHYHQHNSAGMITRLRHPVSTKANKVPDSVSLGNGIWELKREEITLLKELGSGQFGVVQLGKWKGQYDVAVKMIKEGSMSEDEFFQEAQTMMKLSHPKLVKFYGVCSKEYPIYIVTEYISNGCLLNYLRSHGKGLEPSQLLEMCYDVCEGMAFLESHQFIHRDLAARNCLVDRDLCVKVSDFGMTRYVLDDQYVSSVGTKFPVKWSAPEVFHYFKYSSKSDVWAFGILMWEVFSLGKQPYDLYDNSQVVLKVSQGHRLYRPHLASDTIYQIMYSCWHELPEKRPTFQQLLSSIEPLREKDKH
Method in brief: as §1

T1 sequence (Q06187 whole entry): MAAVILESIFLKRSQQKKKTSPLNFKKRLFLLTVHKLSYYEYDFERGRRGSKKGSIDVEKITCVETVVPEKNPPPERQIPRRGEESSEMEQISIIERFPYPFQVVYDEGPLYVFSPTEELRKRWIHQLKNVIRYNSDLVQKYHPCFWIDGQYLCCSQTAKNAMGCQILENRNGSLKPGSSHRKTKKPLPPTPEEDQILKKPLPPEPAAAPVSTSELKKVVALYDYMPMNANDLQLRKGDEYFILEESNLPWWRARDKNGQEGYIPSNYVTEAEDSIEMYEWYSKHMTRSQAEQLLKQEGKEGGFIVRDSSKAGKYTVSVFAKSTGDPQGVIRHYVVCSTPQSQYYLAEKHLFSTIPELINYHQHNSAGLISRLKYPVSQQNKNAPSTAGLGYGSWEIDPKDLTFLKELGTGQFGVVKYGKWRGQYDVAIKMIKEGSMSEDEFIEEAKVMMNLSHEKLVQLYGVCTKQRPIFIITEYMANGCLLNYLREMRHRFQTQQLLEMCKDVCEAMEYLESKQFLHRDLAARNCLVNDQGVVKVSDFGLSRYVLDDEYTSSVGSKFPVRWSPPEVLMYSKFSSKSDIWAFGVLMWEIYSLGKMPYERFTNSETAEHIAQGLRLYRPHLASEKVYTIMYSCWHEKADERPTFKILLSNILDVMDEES

`CC(=O)N[C@@H]1CCN(c2n[nH]c3nccc(-c4ccc(CNC(=O)c5nc(C(C)(C)C)no5)c(F)c4)c23)C1` [Example 373, N-[(4-{3-[(3R)-3-acetamidopyrrolidin-1-yl]-1H-pyrazolo[3,4-b]pyridin-4-yl}-2-fluorophenyl)methyl]-3-tert-butyl-1,2,4-oxadiazole-5-carboxamide] was tested. Which IC50 (Btk) did it give?
Its IC50 is 0.0597 nM.

And the IC50 (TEC)?
Its IC50 is 30.5 nM.

And the IC50 (panel of kinases)?
Its IC50 is 36 nM.

`C=CC(=O)N1CC[C@@H](Nc2n[nH]c3nccc(-c4ccc(CNC(=O)c5ccc6c(c5)OCCO6)c(F)c4)c23)C1` [Example 374, N-{[2-fluoro-4-(3-{[(3R)-1-(prop-2-enoyl)pyrrolidin-3-yl]amino}-1H-pyrazolo[3,4-b]pyridin-4-yl)phenyl]methyl}-2,3-dihydro-1,4-benzodioxine-6-carboxamide] was tested. Which IC50 (Btk) did it give?
The IC50 was 1.23 nM.

And the IC50 (TEC)?
Its IC50 is 146 nM.

And the IC50 (panel of kinases)?
The IC50 was 128 nM.

Which results are given for `C=CC(=O)N1CC[C@@H](Nc2n[nH]c3nccc(-c4ccc(CNC(=O)N5CCCCC5)c(F)c4)c23)C1` [Example 375, N-{[2-fluoro-4-(3-{[(3R)-1-(prop-2-enoyl)pyrrolidin-3-yl]amino}-1H-pyrazolo[3,4-b]pyridin-4-yl)phenyl]methyl}piperidine-1-carboxamide]?
IC50 (Btk): 22.1 nM; IC50 (TEC): 807 nM; IC50 (panel of kinases): 98.3 nM

Which IC50 (Btk) does the source give for `C=CC(=O)N1CC[C@@H](Nc2n[nH]c3nccc(-c4ccc(CNC(=O)c5nn6c(c5C)OCCC6)c(F)c4)c23)C1` [Example 376, N-{[2-fluoro-4-(3-{[(3R)-1-(prop-2-enoyl)pyrrolidin-3-yl]amino}-1H-pyrazolo[3,4-b]pyridin-4-yl)phenyl]methyl}-3-methyl-6,7-dihydro-5H-pyrazolo[5,1-b][1,3]oxazine-2-carboxamide] here?
Its IC50 is 7.99 nM.

What about the IC50 (TEC) of the same molecule?
The IC50 was 344 nM.

What about the IC50 (panel of kinases) of the same molecule?
Its IC50 is 115 nM.

How did the IC50 (Btk) turn out when `C=CC(=O)N1CC[C@@H](Nc2n[nH]c3nccc(-c4ccc(CNC(=O)c5cn6ccccc6n5)c(F)c4)c23)C1` [Example 377, N-{[2-fluoro-4-(3-{[(3R)-1-(prop-2-enoyl)pyrrolidin-3-yl]amino}-1H-pyrazolo[3,4-b]pyridin-4-yl)phenyl]methyl}imidazo [1,2-a]pyridine-2-carboxamide] was run?
Its IC50 is 40.6 nM.

What about the IC50 (TEC) of the same molecule?
Its IC50 is 671 nM.

And the IC50 (panel of kinases)?
Its IC50 is 133 nM.

`C=CC(=O)N1CC[C@@H](Nc2n[nH]c3nccc(-c4ccc(CNC(=O)c5ccc6sc(C)nc6c5)c(F)c4)c23)C1` [Example 378, N-{[2-fluoro-4-(3-{[(3R)-1-(prop-2-enoyl)pyrrolidin-3-yl]amino}-1H-pyrazolo[3,4-b]pyridin-4-yl)phenyl]methyl}-2-methyl-1,3-benzothiazole-5-carboxamide] was tested. Which IC50 (Btk) did it give?
The IC50 was 6.54 nM.

What about the IC50 (TEC) of the same molecule?
The IC50 was 278 nM.

And the IC50 (panel of kinases)?
Its IC50 is 69.2 nM.

Which IC50 (Btk) does the source give for `C=CC(=O)N1CC[C@@H](Nc2n[nH]c3nccc(-c4ccc(CNC(=O)c5ccc6ocnc6c5)c(F)c4)c23)C1` [Example 379, (R)-N-{[2-fluoro-4-(3-{[1-(prop-2-enoyl)pyrrolidin-3-yl]amino}-1H-pyrazolo[3,4-b]pyridin-4-yl)phenyl]methyl}-1,3-benzoxazole-5-carboxamide] here?
Its IC50 is 64.1 nM.

And the IC50 (TEC)?
Its IC50 is 741 nM.

And the IC50 (panel of kinases)?
Its IC50 is 141 nM.

Which results are given for `C=CC(=O)N1CC[C@@H](Nc2n[nH]c3nccc(-c4ccc(CNC(=O)c5ccc6oc(C)nc6c5)c(F)c4)c23)C1` [Example 380, (R)-N-{[2-fluoro-4-(3-{[1-(prop-2-enoyl)pyrrolidin-3-yl]amino}-1H-pyrazolo[3,4-b]pyridin-4-yl)phenyl]methyl}-2-methyl-1,3-benzoxazole-5-carboxamide]?
IC50 (Btk): 336 nM; IC50 (TEC): 662 nM; IC50 (panel of kinases): 101 nM

How did the IC50 (Btk) turn out when `C=CC(=O)N[C@@H]1CCN(c2n[nH]c3nccc(-c4ccc([C@@H](C)NC(=O)c5cc(C(C)(C)O)on5)cc4)c23)C1` [Example 382, 5-(2-hydroxypropan-2-yl)-N-{(1R)-1-[4-(3-{(3R)-3-[(prop-2-enoyl)amino]pyrrolidin-1-yl}-1H-pyrazolo[3,4-b]pyridin-4-yl)phenyl]ethyl}-1,2-oxazole-3-carboxamide] was run?
The IC50 was 1.81 nM.

And the IC50 (TEC)?
Its IC50 is 433 nM.

What about the IC50 (panel of kinases) of the same molecule?
Its IC50 is 435 nM.

For `C[C@@H](NC(=O)c1nc(C(C)(C)C)no1)c1ccc(-c2ccnc3[nH]nc(N4CCCCC4)c23)cc1` [Example 384, 3-tert-butyl-N-[(1R)-1-{4-[3-(piperidin-1-yl)-1H-pyrazolo[3,4-b]pyridin-4-yl]phenyl}ethyl]-1,2,4-oxadiazole-5-carboxamide], which IC50 (Btk) is on record?
Its IC50 is 0.664 nM.

What about the IC50 (TEC) of the same molecule?
Its IC50 is 3040 nM.

What about the IC50 (panel of kinases) of the same molecule?
Its IC50 is 2040 nM.

What does the source list for `CC(C)c1noc(C(=O)N[C@H](C)c2ccc(-c3ccnc4[nH]nc(N5CCOCC5)c34)cc2)n1` [Example 389, N-[(1R)-1-{4-[3-(morpholin-4-yl)-1H-pyrazolo[3,4-b]pyridin-4-yl]phenyl}ethyl]-3-(propan-2-yl)-1,2,4-oxadiazole-5-carboxamide]?
IC50 (Btk): 4.05 nM; IC50 (TEC): 914 nM; IC50 (panel of kinases): 502 nM

`C=CC(=O)N1CC[C@@H](Nc2n[nH]c3nccc(-c4ccc(CNC(=O)c5cn6c(C)cccc6n5)c(F)c4)c23)C1` [Example 390, N-{[2-fluoro-4-(3-{[(3R)-1-(prop-2-enoyl)pyrrolidin-3-yl]amino}-1H-pyrazolo[3,4-b]pyridin-4-yl)phenyl]methyl}-5-methylimidazo[1,2-a]pyridine-2-carboxamide] was tested. Which IC50 (Btk) did it give?
The IC50 was 38.1 nM.

And the IC50 (TEC)?
The IC50 was 713 nM.

What about the IC50 (panel of kinases) of the same molecule?
Its IC50 is 162 nM.

What does the source list for `C[C@H]1CC[C@@H](Nc2n[nH]c3nccc(-c4ccc(CNC(=O)c5nc(C(C)(C)C)no5)c(F)c4)c23)CN1C(=O)N(C)C` [Example 391, (2S,5R)-5-{[4-(4-{[(3-tert-butyl-1,2,4-oxadiazole-5-carbonyl)amino]methyl}-3-fluorophenyl)-1H-pyrazolo[3,4-b]pyridin-3-yl]amino}-N,N,2-trimethylpiperidine-1-carboxamide]?
IC50 (Btk): 0.237 nM; IC50 (TEC): 776 nM; IC50 (panel of kinases): 1350 nM

How did the IC50 (Btk) turn out when `CC(=O)N[C@@H]1CCN(c2n[nH]c3nccc(-c4ccc(CNC(=O)c5nc6ccccc6o5)c(F)c4)c23)C1` [Example 394, N-[(4-{3-[(3R)-3-acetamidopyrrolidin-1-yl]-1H-pyrazolo[3,4-b]pyridin-4-yl}-2-fluorophenyl)methyl]-1,3-benzoxazole-2-carboxamide] was run?
Its IC50 is 63.3 nM.

What about the IC50 (TEC) of the same molecule?
The IC50 was 1890 nM.

What about the IC50 (panel of kinases) of the same molecule?
Its IC50 is 661 nM.

How did the IC50 (Btk) turn out when `C=CC(=O)N[C@@H]1CCN(c2n[nH]c3nccc(-c4ccc(CNC(=O)c5nc6ccccc6o5)c(F)c4)c23)C1` [Example 395, N-{[2-fluoro-4-(3-{(3R)-3-[(prop-2-enoyl)amino]pyrrolidin-1-yl}-1H-pyrazolo[3,4-b]pyridin-4-yl)phenyl]methyl}-1,3-benzoxazole-2-carboxamide] was run?
Its IC50 is 1.19 nM.

What about the IC50 (TEC) of the same molecule?
Its IC50 is 52.6 nM.

What about the IC50 (panel of kinases) of the same molecule?
Its IC50 is 30.3 nM.

For `C[C@@H](NC(=O)c1nc(C(C)(C)C)no1)c1ccc(-c2ccnc3[nH]nc(N4CCC(NS(C)(=O)=O)CC4)c23)cc1` [Example 396, 3-tert-butyl-N-{(1R)-1-[4-(3-{4-[(methanesulfonyl)amino]piperidin-1-yl}-1H-pyrazolo[3,4-b]pyridin-4-yl)phenyl]ethyl}-1,2,4-oxadiazole-5-carboxamide], which IC50 (Btk) is on record?
Its IC50 is 0.488 nM.

And the IC50 (TEC)?
The IC50 was 235 nM.

What about the IC50 (panel of kinases) of the same molecule?
The IC50 was 1190 nM.

For `C[C@@H](NC(=O)c1cc(C(C)(C)O)on1)c1ccc(-c2ccnc3[nH]nc(NC4CCCC4)c23)cc1` [Example 397, N-[(1R)-1-{4-[3-(cyclopentylamino)-1H-pyrazolo[3,4-b]pyridin-4-yl]phenyl}ethyl]-5-(2-hydroxypropan-2-yl)-1,2-oxazole-3-carboxamide], which IC50 (Btk) is on record?
The IC50 was 382 nM.

And the IC50 (TEC)?
Its IC50 is 6060 nM.

What about the IC50 (panel of kinases) of the same molecule?
The IC50 was 3360 nM.

Reference: US20180194762A1 (Pharmacyclics LLC, priority 2017, published 2018)
